This note sets out measurements from US11814367B2, “Inhibitors of glycogen synthase 1 (GYS1) and methods of use thereof” (Maze Therapeutics, Inc., priority 2021, dated 2023).

The target of assay [1] is hGYS2 enzyme (recombinant hGYS2/GN1 protein) (Homo sapiens (Human), UniProt P54840). Nature of the assay: GYS2 coupled enzyme assay (PK/LDH). Format: biochemical. To be noted: geometric mean of at least 2 assay runs on separate days, read-out: Avg_IC50. In outline:
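Recombinant hGYS2/GN1 (200 nM) with 2 mM UDP-glucose, 0.2% rabbit liver glycogen, 2 mM glucose-6-phosphate; UDP coupled via PK/LDH (2 mM PEP, 0.6 mM NADH). Buffer 50 mM Tris pH 7.5, 2 mM MgCl2, 100 mM KCl, 2.5% DMSO. A340 slope over 10 min; IC50 from Hill fit of duplicates.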

The subject of assay [2] is hGYS1 enzyme / glycogen synthesis in HeLa cells. Nature of the assay: GYS1 cell based assay (glycogen synthesis, Glucose-glo). Further details: species or system human. To be noted: Homo sapiens, HeLa, 24 h, 24 h incubation, 20 mM glucose, geometric mean of at least 2 runs. In outline:
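HeLa cells starved 24 h in medium containing only 1× Glutamax were plated onto compound in medium with 20 mM glucose (1% DMSO final) for 24 h, 37 °C, 5% CO2. Acid lysates were Tris-quenched, glucoamylase-digested (pH 5.3, 1 h, 37 °C) and read by Glucose-glo luminescence. IC50 came from Hill fits, as geometric mean of ≥2 runs.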

In assay [3] the target is hGYS1 enzyme (recombinant hGYS1/GN1 protein) (Homo sapiens (Human), UniProt P13807). Nature of the assay: GYS1 coupled enzyme assay (PK/LDH). To be noted: hGYS1/GN1 50 nM, UDP-Glucose 0.8 mM, G6P 1 mM; geometric mean of at least 2 runs. Type of assay: biochemical.

SMILES strings stand for the structures.

Chain of hGYS2 enzyme (recombinant hGYS2/GN1 protein) (P54840 whole entry): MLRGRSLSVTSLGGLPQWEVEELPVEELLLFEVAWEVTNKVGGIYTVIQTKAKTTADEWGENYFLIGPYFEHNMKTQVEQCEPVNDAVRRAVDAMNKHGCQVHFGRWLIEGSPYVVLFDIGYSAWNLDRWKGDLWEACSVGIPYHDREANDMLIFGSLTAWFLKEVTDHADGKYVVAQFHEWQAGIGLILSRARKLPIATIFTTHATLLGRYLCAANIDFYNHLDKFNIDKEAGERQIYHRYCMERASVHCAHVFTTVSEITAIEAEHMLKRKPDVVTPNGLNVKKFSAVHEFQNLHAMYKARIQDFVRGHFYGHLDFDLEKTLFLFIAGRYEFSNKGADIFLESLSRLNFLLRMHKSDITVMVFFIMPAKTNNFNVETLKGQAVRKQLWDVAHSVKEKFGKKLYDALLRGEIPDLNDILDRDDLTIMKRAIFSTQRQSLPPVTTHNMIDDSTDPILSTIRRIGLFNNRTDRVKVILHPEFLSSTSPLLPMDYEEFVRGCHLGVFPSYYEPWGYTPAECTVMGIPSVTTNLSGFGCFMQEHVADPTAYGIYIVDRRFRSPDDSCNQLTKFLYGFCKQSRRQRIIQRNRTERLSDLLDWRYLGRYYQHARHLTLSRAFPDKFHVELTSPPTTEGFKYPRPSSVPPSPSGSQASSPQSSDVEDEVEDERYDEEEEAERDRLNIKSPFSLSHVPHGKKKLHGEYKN
Chain of hGYS2 enzyme (recombinant hGYS2/GN1 protein) (P46976 whole entry partner): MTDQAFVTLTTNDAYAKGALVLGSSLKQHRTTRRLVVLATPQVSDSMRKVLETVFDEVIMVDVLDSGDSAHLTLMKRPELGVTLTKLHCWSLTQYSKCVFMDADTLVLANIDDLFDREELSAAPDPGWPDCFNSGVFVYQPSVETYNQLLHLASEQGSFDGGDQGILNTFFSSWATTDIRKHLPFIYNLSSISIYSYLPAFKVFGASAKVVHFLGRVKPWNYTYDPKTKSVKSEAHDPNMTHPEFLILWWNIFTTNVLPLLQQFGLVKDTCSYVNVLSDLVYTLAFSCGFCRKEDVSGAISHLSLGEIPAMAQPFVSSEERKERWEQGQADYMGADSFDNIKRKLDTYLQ
Chain of hGYS1 enzyme (recombinant hGYS1/GN1 protein) (P13807 whole entry): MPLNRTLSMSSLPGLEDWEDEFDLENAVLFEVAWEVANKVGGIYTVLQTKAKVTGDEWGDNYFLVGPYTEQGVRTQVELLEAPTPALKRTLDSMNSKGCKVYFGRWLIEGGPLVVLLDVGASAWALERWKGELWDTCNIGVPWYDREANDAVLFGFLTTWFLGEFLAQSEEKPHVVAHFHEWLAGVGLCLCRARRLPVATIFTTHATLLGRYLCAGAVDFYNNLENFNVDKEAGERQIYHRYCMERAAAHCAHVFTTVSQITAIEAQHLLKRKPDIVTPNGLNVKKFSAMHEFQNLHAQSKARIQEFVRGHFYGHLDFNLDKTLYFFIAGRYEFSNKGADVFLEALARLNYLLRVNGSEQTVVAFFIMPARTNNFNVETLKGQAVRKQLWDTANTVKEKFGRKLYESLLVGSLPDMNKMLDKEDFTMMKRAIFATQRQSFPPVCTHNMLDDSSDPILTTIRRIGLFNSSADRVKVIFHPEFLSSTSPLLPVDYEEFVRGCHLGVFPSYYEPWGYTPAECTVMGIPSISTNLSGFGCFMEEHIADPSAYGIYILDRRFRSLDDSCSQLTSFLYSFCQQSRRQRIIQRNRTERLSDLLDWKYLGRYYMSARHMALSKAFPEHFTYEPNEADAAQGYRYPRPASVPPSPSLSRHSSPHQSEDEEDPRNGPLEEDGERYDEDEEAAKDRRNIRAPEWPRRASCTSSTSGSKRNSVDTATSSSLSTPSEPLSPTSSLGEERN
Chain of hGYS1 enzyme (recombinant hGYS1/GN1 protein) (P46976 whole entry partner): as the sequence (P46976 whole entry partner) above

As for `O=C(N[C@@H](c1ccccc1)c1ccc(C2CC2)c(F)n1)[C@@H]1C[C@@H](F)CN1C(=O)Cn1ncc(N2CC(F)(F)C2)n1` [Compound 318, (2S,4R)-N-[(S)-(5-cyclopropyl-6-fluoropyridin-2-yl)(phenyl)methyl]-1-{2-[4-(3,3-difluoroazetidin-1-yl)-2H-1,2,3-triazol-2-yl]acetyl}-4-fluoropyrrolidine-2-carboxamide], the IC50 in assay [1] was over 100000 nM; in assay [2], 580 nM; in assay [3], 20 nM.

`CC(C)c1ccc([C@@H](NC(=O)[C@@H]2C[C@@H](F)CN2C(=O)CNC(N)=O)c2ccccc2)nc1F` [Compound 396, (2S,4R)-1-[2-(carbamoylamino)acetyl]-4-fluoro-N-[(S)-[6-fluoro-5-(propan-2-yl)pyridin-2-yl](phenyl)methyl] pyrrolidine-2-carboxamide]: the results for the IC50 in assay [1], in assay [2] and in assay [3] were over 100000 nM, 330 nM and 13 nM, respectively.

With `CC(C)c1ccc([C@@H](NC(=O)[C@@H]2C[C@@H](F)CN2C(=O)[C@@H](C)NC(=O)N(C)C)c2ccccc2)nc1F` [Compound 406, (2S,4R)-1-[(2R)-2-[(dimethylcarbamoyl)amino]propanoyl]-4-fluoro-N-[(S)-[6-fluoro-5-(propan-2-yl)pyridin-2-yl](phenyl)methyl] pyrrolidine-2-carboxamide], the IC50 in assay [1] is over 100000 nM; in assay [2], 760 nM; in assay [3] it was 41 nM.

Turning to `Cc1coc(CC(=O)N2C[C@H](F)C[C@H]2C(=O)N[C@@H](c2ccccc2)c2ccc(C3CC(F)(F)C3)c(F)n2)n1` [Compound 511, (2S,4R)-N-[(S)-[5-(3,3-difluorocyclobutyl)-6-fluoropyridin-2-yl](phenyl)methyl]-4-fluoro-1-[2-(4-methyl-1,3-oxazol-2-yl)acetyl]pyrrolidine-2-carboxamide], the IC50 in assay [1] was over 100000 nM; in assay [2], 260 nM; in assay [3], 12 nM.

As to `O=C(N[C@@H](c1ccccc1)c1ccc(C2CC2)c(F)c1)[C@@H]1C[C@@H](F)CN1C(=O)CNC(=O)N1CCN(CC(F)(F)F)CC1` [Compound 487, N-{2-[(2S,4R)-2-{[(S)-(4-cyclopropyl-3-fluorophenyl)(phenyl)methyl]carbamoyl}-4-fluoropyrrolidin-1-yl]-2-oxoethyl}-4-(2,2,2-trifluoroethyl) piperazine-1-carboxamide], the IC50 in assay [1] was over 100000 nM; in assay [2], 2090 nM; in assay [3], 68 nM.

As to `O=C(N[C@@H](c1ccccc1)c1ccc(C2CC2)c(F)n1)[C@@H]1C[C@@H](F)CN1C(=O)CNc1ncco1` [Compound 309, (2S,4R)-N-[(S)-(5-cyclopropyl-6-fluoropyridin-2-yl)(phenyl)methyl]-4-fluoro-1-{2-[(1,3-oxazol-2-yl)amino]acetyl}pyrrolidine-2-carboxamide], the values for the IC50 in assay [1], in assay [2] and in assay [3] were over 100000 nM, 970 nM and 55 nM, respectively.

For `CC(C)c1ccc([C@@H](NC(=O)[C@@H]2C[C@@H](F)CN2C(=O)Cn2cccn2)c2ccccc2)nc1F` [Compound 781, (2S,4R)-4-fluoro-N-[(S)-[6-fluoro-5-(propan-2-yl)pyridin-2-yl](phenyl)methyl]-1-[2-(1H-pyrazol-1-yl)acetyl]pyrrolidine-2-carboxamide], the IC50 was over 100000 nM in assay [1], 270 nM in assay [2] and 11 nM in assay [3].

Turning to `CC(C)c1ccc([C@@H](NC(=O)[C@@H]2C[C@@H](F)CN2C(=O)Cc2ccnnc2)c2ccccc2)cc1F` [Compound 342, (2S,4R)-4-fluoro-N-[(S)-[3-fluoro-4-(propan-2-yl)phenyl](phenyl)methyl]-1-[2-(pyridazin-4-yl)acetyl]pyrrolidine-2-carboxamide], the IC50 was over 100000 nM in assay [1], 370 nM in assay [2] and 34 nM in assay [3].

Take `CC(C)c1ccc([C@@H](NC(=O)[C@@H]2C[C@@H](F)CN2C(=O)Cc2cnn[nH]2)c2cccc(-c3ccn[nH]3)c2)nc1F` [Compound 686, (2S,4R)-1-(2-(1H-1,2,3-triazol-5-yl)acetyl)-N—((S)-(3-(1H-pyrazol-5-yl)phenyl)(6-fluoro-5-isopropylpyridin-2-yl)methyl)-4-fluoropyrrolidine-2-carboxamide]: the IC50 in assay [1] was over 100000 nM; in assay [2] it was 640 nM; in assay [3] it was 13 nM.

Turning to `Cn1c(CC(=O)N2C[C@H](F)C[C@H]2C(=O)N[C@@H](c2ccccc2)c2ccc(C3CC3)c(F)n2)n[nH]c1=O` [Compound 304, (2S,4R)-N-[(S)-(5-cyclopropyl-6-fluoropyridin-2-yl)(phenyl)methyl]-4-fluoro-1-[2-(4-methyl-5-oxo-4,5-dihydro-1H-1,2,4-triazol-3-yl)acetyl]pyrrolidine-2-carboxamide], the IC50 in assay [1] is over 100000 nM; in assay [2], 2330 nM; in assay [3], 73 nM.

On to `Cc1nn(CC(=O)N2C[C@H](F)C[C@H]2C(=O)N[C@@H](c2ccccc2)c2ccc(C(C)C)cc2)c(=O)o1` [Compound 236, (2S,4R)-4-fluoro-1-[2-(5-methyl-2-oxo-2,3-dihydro-1,3,4-oxadiazol-3-yl)acetyl]-N-[(S)-phenyl[4-(propan-2-yl)phenyl]methyl]pyrrolidine-2-carboxamide], for which the IC50 in assay [1] was over 100000 nM; in assay [2] it was 810 nM; in assay [3], 58 nM.

In the case of `CC(C)c1ccc([C@@H](NC(=O)[C@@H]2C[C@@H](F)CN2C(=O)Cn2cc(N3CCNCC3)nn2)c2ccccc2)cc1F` [Compound 375, (2S,4R)-4-fluoro-N-[(S)-[3-fluoro-4-(propan-2-yl)phenyl](phenyl)methyl]-1-{2-[4-(piperazin-1-yl)-1H-1,2,3-triazol-1-yl]acetyl}pyrrolidine-2-carboxamide], the IC50 in assay [1] is over 77400 nM; in assay [2], 570 nM; in assay [3] it was 6 nM.

`O=C(N[C@@H](c1ccccc1)c1ccc(C2CC(F)(F)C2)c(F)n1)[C@@H]1C[C@@H](F)CN1C(=O)CNC(=O)N1CC(F)(F)C1` [Compound 512, (2S,4R)-1-{2-[(3,3-difluoroazetidine-1-carbonyl)amino]acetyl}-N-[(S)-[5-(3,3-difluorocyclobutyl)-6-fluoropyridin-2-yl](phenyl)methyl]-4-fluoropyrrolidine-2-carboxamide]: the IC50 in assay [1] is over 100000 nM; in assay [2] it was 290 nM; in assay [3] it was 15 nM.

`Cc1nccc(N(C)CC(=O)N2C[C@H](F)C[C@H]2C(=O)N[C@@H](c2ccccc2)c2ccc(C3CC3)c(F)c2)n1` [Compound 476, (2S,4R)-N-[(S)-(4-cyclopropyl-3-fluorophenyl)(phenyl)methyl]-4-fluoro-1-{2-[methyl(2-methylpyrimidin-4-yl)amino]acetyl} pyrrolidine-2-carboxamide]: the IC50 in assay [1] is over 100000 nM; in assay [2], 900 nM; in assay [3], 39 nM.

`Cc1nnc(CC(=O)N2C[C@H](F)C[C@H]2C(=O)N[C@@H](c2ccccc2)c2ccc(C(C)C)c(F)c2)o1` [Compound 332, (2S,4R)-4-fluoro-N-[(S)-[3-fluoro-4-(propan-2-yl)phenyl](phenyl)methyl]-1-[2-(5-methyl-1,3,4-oxadiazol-2-yl)acetyl]pyrrolidine-2-carboxamide]: the IC50 was over 100000 nM in assay [1], 270 nM in assay [2] and 25 nM in assay [3].

Regarding `CC(C)c1cnc(C(NC(=O)[C@@H]2C[C@@H](F)CN2C(=O)Cc2cnn[nH]2)c2ccccc2)cc1F` (single isomer, unassigned) [Compound 605, (2S,4R)-4-fluoro-N-[(S) or (R)-[4-fluoro-5-(propan-2-yl)pyridin-2-yl] (phenyl)methyl]-1-[2-(1H-1,2,3-triazol-5-yl)acetyl]pyrrolidine-2-carboxamide], the IC50 in assay [1] is over 100000 nM; in assay [2] it was 2130 nM; in assay [3] it was 168 nM.

With `CC1(c2ccc([C@@H](NC(=O)[C@@H]3C[C@@H](F)CN3C(=O)CNC(=O)N3CCOCC3)c3ccccc3)cc2F)CC1` [Compound 565, N-{2-[(2S,4R)-4-fluoro-2-{[(S)-[3-fluoro-4-(1-methylcyclopropyl)phenyl](phenyl)methyl]carbamoyl}pyrrolidin-1-yl]-2-oxoethyl}morpholine-4-carboxamide], the IC50 in assay [1] was over 100000 nM; in assay [2], 1210 nM; in assay [3], 48 nM.

In the case of `CC(C)c1ccc([C@@H](NC(=O)[C@@H]2C[C@@H](F)CN2C(=O)[C@H]2CNC(=O)O2)c2ccccc2)cc1F` [Compound 382, (2S,4R)-4-fluoro-N-[(S)-[3-fluoro-4-(propan-2-yl)phenyl](phenyl)methyl]-1-[(5R)-2-oxo-1,3-oxazolidine-5-carbonyl]pyrrolidine-2-carboxamide], the IC50 in assay [1] is over 100000 nM; in assay [2] it was 520 nM; in assay [3], 34 nM.

Turning to `CC1(c2ccc([C@@H](NC(=O)[C@@H]3C[C@@H](F)CN3C(=O)Cn3nnc4ccccc43)c3ccccc3)nc2F)CC1` [Compound 594, (2S,4R)-1-[2-(1H-1,2,3-benzotriazol-1-yl)acetyl]-4-fluoro-N-[(S)-[6-fluoro-5-(1-methylcyclopropyl)pyridin-2-yl](phenyl)methyl] pyrrolidine-2-carboxamide], the IC50 was over 100000 nM in assay [1], 720 nM in assay [2] and 50 nM in assay [3].
